Assay [1] relates to SK-OV-3. The assay is described as follows: Inhibition of cell migration in human SK-OV-3 cells assessed as relative wound density at 2.5 nM incubated for 24 hrs by wound healing assay (reference value: 74.53 %). Type of assay: functional. Also noted: scale not given: the % may be the effect or the level left.
Assay [2] relates to SK-OV-3. The assay can be described thus: Induction of apoptosis in human SK-OV-3 cells assessed as necrotic cells at 5 nM incubated for 48 hrs by Annexin V-APC-A/7-AAD-A staining based flow cytometry (reference value: 0.21 %). Type of assay: functional.

From ChEMBL document CHEMBL5608184, “Discovery and mechanistic insights into thieno[3,2-d]pyrimidine and heterocyclic fused pyrimidines inhibitors targeting tubulin for cancer therapy” (Eur J Med Chem, 2024) come the findings set out here.

Structures are written as SMILES.

Turning to `COc1ccc2c(c1)NC(=O)CN2c1nc(Cl)nc2ccsc12`, the Activity in assay [1] was found to be 9.35%. For the molecule `COc1ccc(N(C)c2nc(Cl)nc3ccn(C)c23)cc1`, the Activity in assay [2] is listed as 2.25%.
